According to ChEMBL document CHEMBL1133086, “Design, synthesis, and X-ray crystal structure of a potent dual inhibitor of thymidylate synthase and dihydrofolate reductase as an antitumor agent” (J Med Chem, 2000):

What was measured:
[1] = target: Thymidylate synthase (Rattus norvegicus, UniProt P45352); assay: Inhibitory concentration against isolated rat thymidylate synthase
[2] = target: T1, Thymidylate synthase (Lactobacillus casei, UniProt P00469); assay: Inhibitory concentration against isolated Lactobacillus casei Thymidylate synthase; set-up: species or system Lacticaseibacillus casei
T1 sequence (P00469 whole entry): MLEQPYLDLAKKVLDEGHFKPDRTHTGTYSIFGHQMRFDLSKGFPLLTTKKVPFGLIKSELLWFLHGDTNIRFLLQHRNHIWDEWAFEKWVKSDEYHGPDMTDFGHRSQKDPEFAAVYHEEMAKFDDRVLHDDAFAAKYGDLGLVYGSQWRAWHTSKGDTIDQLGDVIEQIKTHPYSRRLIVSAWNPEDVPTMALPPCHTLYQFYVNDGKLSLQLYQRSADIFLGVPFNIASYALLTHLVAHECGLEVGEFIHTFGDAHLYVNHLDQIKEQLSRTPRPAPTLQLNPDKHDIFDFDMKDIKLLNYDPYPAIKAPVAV

[3] = target: T2, Dihydrofolate reductase (Pneumocystis carinii, UniProt P16184)
T2 sequence (P16184 whole entry): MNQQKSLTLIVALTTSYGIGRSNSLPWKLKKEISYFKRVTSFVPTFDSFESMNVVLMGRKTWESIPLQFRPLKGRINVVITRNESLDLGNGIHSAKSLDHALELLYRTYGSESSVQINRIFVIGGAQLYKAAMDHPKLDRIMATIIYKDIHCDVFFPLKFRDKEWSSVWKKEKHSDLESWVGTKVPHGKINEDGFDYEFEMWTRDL
Description: Inhibitory concentration against isolated Pneumocystis carinii DHFR (Dihydrofolate reductase)

[4] = target: Thymidylate synthase (Escherichia coli, UniProt C3SWJ7); assay: Inhibitory concentration against isolated Escherichia coli Thymidylate synthase
[5] = target: T3, Dihydrofolate reductase (Homo sapiens, UniProt P00374); assay: Inhibitory concentration against isolated human Dihydrofolate reductase
T3 sequence (P00374 whole entry): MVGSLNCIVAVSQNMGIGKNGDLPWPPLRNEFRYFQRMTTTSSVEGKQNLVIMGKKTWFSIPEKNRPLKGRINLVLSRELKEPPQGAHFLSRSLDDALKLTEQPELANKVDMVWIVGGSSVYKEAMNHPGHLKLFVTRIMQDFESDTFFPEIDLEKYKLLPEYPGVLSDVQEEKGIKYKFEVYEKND

[6] = tested on: CCRF-CEM; assay: Concentration required to inhibit growth against CCRF-CEM cell; type: functional, cell-based; conditions: Homo sapiens
[7] = target: T4, Bifunctional dihydrofolate reductase-thymidylate synthase (Toxoplasma gondii, UniProt Q07422)
T4 sequence (Q07422 whole entry): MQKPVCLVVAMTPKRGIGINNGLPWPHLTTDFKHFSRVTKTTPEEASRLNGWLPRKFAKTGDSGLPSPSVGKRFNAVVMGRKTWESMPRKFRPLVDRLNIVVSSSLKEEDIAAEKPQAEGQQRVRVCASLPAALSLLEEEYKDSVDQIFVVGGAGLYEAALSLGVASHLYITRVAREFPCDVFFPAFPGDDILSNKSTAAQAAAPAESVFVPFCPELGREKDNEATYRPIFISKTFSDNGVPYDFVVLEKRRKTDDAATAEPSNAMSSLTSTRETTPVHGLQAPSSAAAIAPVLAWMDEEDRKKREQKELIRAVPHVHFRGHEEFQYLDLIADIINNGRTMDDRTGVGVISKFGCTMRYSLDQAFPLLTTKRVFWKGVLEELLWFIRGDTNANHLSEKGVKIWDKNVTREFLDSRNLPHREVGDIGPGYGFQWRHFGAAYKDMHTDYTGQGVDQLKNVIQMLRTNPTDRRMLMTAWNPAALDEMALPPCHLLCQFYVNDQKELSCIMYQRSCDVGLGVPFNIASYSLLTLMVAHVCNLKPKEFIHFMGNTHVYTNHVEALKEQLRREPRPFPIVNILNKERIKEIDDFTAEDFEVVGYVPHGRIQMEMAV
Description: Inhibitory concentration against isolated Toxoplasma gondii DHFR (dihydrofolate reductase)

[8] = target: Dihydrofolate reductase (Escherichia coli, UniProt P0ABQ4)
Description: Inhibitory concentration against isolated Escherichia coli Dihydrofolate reductase

[9] = tested on: carcinoma cell line; assay: Tested for their inhibition of growth of FaDu head on carcinoma cell lines.; type: functional, cell-based; conditions: Homo sapiens
[10] = species on record: Homo sapiens; assay: Ratio between Vmax and Km for compound as substrate for recombinant human folyl-poly-glutamate synthase (FPGS); type: ADME; conditions: in vivo
[11] = target: Dihydrofolate reductase (Lactobacillus casei, UniProt P00381); assay: Inhibitory concentration against isolated Lactobacillus casei Dihydrofolate reductase; set-up: species or system Lacticaseibacillus casei
[12] = target: T5, Thymidylate synthase (Homo sapiens, UniProt P04818); assay: Inhibitory concentration against isolated Thymidylate synthase
[13] = tested on: carcinoma cell line; assay: Tested for their inhibition of growth of CCRF-CEM human leukemia on carcinoma cell lines.; type: functional, cell-based
[14] = species on record: Homo sapiens; assay: The maximum velocity at which substrate concentration is stabilised is determined for compound as substrate for recombinant human folyl-poly-glutamate synthase (FPGS); type: ADME; conditions: in vivo
[15] = tested on: CCRF-CEM; assay: Tested for their growth inhibition of CCRF-CEM human leukemia subline resistant as a result of decrease polyglutamylation.; type: functional, cell-based
[16] = tested on: CCRF-CEM; assay: Growth inhibition of human T-lymphoblastic leukemia cell line CCRF-CEM in culture; type: functional; conditions: read-out: ED50 (the source's name)
[17] = tested on: MOLT-4; assay: Cytotoxicity against leukemia MOLT-4 tumor cell lines.; type: functional; conditions: Homo sapiens
[18] = tested on: ACHN; assay: Cytotoxicity was tested against renal cancer ACHN tumor cell lines.; type: functional; conditions: Homo sapiens
[19] = tested on: NCI-H226; assay: Cytotoxicity against non small cell lung cancer NCI-H226 tumor cell lines.; type: functional; conditions: Homo sapiens
[20] = tested on: MCF7; assay: Cytotoxicity was tested against breast cancer MCF-7 tumor cell lines.; type: functional; conditions: Homo sapiens
[21] = tested on: CCRF-CEM; assay: Tested for their growth inhibition of CCRF-CEM human leukemia subline resistant as a result of decrease in uptake.; type: functional, cell-based
[22] = tested on: NCI-H460; assay: Cytotoxicity against non small cell lung cancer NCI-H460 tumor cell lines.; type: functional; conditions: Homo sapiens
[23] = tested on: HCT-116; assay: Cytotoxicity was tested against colon cancer HCT116 tumor cell lines.; type: functional; conditions: Homo sapiens
[24] = tested on: CCRF-CEM; assay: Tested for their growth inhibition of CCRF-CEM human leukemia subline resistant as a result of increase in wild type DHFR protein and activity.; type: functional, cell-based
[25] = tested on: SF-539; assay: Cytotoxicity was tested against CNS cancer SF-539 tumor cell lines.; type: functional; conditions: Homo sapiens
[26] = tested on: HCC 2998; assay: Cytotoxicity against colon cancer HCC2998 tumor cell lines.; type: functional; conditions: Homo sapiens
[27] = target: T5, Thymidylate synthase; assay: Inhibitory concentration against human TS
[28] = target: T6, Bifunctional purine biosynthesis protein ATIC (Homo sapiens, UniProt P31939); assay: Inhibition against […]-4-carboxamide ribonucleotide formyltransferase (AICAR formyltransferase); In active
[29] = target: Trifunctional purine biosynthetic protein adenosine-3 (Homo sapiens, UniProt P22102); assay: Inhibition against GAR transformylase; In active
[30] = target: T5, Thymidylate synthase; assay: Inhibitory concentration against human Thymidylate synthase(TS)
[31] = target: T6, Bifunctional purine biosynthesis protein ATIC; assay: Inhibition against […]-4-carboxamide ribonucleotide formyltransferase (AICAR formyltransferase); inactive
[32] = tested on: FaDu; assay: Growth inhibition of human squamous cell carcinoma FaDu in culture; type: functional; conditions: read-out: ED50 (the source's name)
[33] = substrate: Cc1nc(N)nc2c1c(CCc1ccc(C(=O)N[C@@H](CCC(=O)O)C(=O)O)cc1)cn2Cc1ccccc1; assay: (§1) Activity as substrate for recombinant human folyl-poly-glutamate synthase (FPGS).
[34] = substrate: Cc1nc(N)nc2[nH]cc(CCc3ccc(C(=O)N[C@@H](CCC(=O)O)C(=O)O)cc3)c12; assay: as §1

Sequence of Dihydrofolate reductase (Lactobacillus casei, UniProt P00381) (P00381 whole entry): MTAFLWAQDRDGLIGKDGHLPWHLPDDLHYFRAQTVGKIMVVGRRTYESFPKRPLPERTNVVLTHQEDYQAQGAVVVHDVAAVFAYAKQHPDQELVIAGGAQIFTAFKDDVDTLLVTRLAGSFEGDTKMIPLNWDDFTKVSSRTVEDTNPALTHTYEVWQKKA
T5 sequence (P04818 whole entry): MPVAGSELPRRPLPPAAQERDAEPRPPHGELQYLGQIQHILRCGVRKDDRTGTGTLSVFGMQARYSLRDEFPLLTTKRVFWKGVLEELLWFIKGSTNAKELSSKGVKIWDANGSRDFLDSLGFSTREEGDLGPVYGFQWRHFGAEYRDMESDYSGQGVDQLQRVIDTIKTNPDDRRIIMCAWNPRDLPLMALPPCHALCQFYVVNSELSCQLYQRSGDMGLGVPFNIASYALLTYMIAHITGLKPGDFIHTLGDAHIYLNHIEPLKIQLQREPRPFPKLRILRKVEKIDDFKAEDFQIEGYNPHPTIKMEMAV
Sequence of Thymidylate synthase (Rattus norvegicus, UniProt P45352) (P45352 whole entry): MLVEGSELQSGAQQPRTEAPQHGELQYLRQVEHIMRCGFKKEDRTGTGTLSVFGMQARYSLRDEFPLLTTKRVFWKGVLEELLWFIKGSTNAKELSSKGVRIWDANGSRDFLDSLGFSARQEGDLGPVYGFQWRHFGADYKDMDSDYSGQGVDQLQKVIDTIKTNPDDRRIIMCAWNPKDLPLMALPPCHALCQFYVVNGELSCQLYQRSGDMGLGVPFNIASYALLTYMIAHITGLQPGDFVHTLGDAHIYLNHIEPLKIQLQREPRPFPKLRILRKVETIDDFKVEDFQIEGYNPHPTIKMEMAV
T6 sequence (P31939 whole entry): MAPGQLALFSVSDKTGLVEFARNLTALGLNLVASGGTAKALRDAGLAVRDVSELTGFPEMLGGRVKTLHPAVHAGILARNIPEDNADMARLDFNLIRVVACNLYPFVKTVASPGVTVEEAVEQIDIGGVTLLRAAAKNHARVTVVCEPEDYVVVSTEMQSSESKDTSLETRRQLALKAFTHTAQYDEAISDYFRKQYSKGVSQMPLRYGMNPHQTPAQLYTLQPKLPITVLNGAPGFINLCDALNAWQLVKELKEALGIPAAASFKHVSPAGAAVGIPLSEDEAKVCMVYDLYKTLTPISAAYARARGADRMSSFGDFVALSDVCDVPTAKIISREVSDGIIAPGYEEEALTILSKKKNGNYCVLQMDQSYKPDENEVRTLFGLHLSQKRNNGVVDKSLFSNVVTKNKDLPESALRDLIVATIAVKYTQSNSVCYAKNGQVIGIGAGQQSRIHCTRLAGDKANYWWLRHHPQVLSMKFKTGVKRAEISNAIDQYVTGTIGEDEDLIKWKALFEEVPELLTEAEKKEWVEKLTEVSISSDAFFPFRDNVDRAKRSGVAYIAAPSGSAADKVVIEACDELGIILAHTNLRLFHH
Sequence of Dihydrofolate reductase (Escherichia coli, UniProt P0ABQ4) (P0ABQ4 whole entry): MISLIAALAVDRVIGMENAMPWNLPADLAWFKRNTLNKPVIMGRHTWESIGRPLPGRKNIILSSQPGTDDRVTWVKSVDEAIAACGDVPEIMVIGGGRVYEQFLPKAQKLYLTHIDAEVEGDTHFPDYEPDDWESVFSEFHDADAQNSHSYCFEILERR
Sequence of Thymidylate synthase (Escherichia coli, UniProt C3SWJ7) (C3SWJ7 whole entry): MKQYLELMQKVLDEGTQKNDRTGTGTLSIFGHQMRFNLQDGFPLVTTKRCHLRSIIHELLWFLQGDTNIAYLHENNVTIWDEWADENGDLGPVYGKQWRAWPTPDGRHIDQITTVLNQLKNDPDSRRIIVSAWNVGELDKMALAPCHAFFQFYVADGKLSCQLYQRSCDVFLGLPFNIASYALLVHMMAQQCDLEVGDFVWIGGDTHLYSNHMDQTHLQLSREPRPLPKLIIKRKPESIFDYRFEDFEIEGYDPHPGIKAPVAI
Sequence of Trifunctional purine biosynthetic protein adenosine-3 (P22102 whole entry): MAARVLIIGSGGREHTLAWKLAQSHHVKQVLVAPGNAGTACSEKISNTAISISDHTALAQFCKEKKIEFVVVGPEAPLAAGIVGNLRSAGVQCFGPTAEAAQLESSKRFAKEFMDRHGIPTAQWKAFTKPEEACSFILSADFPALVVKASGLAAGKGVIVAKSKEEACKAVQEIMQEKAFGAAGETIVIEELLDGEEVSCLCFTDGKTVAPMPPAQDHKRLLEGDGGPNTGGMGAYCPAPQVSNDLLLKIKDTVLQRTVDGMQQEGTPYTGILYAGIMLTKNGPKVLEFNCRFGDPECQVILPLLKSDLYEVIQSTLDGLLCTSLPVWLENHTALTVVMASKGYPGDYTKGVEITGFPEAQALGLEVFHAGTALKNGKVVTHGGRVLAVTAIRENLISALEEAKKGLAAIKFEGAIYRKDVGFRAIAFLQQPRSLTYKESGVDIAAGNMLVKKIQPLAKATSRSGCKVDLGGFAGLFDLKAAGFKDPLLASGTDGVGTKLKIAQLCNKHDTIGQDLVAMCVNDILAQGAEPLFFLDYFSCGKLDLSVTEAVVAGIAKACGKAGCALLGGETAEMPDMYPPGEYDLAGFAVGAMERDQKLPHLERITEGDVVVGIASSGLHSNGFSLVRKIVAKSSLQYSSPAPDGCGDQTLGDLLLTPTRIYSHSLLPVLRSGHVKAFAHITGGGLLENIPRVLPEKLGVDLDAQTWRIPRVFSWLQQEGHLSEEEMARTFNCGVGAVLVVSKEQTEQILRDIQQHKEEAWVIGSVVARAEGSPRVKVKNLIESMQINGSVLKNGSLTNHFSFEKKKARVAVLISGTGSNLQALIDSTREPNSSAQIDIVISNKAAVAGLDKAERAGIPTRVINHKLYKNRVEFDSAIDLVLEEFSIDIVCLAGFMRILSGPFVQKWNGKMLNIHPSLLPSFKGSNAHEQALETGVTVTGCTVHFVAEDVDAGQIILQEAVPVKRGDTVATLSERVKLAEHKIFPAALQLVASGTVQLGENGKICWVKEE

Q: What does the source list for Cc1nc2ccc(CN(C)c3ccc(C(=O)N[C@@H](CCC(=O)O)C(=O)O)s3)cc2c(=O)[nH]1 [RALTITREXED]?
A: IC50 [1]: 900 nM; IC50 [2]: 8 µM

Q: Which results are given for Cc1nc(N)nc2c1c(CCc1ccc(C(=O)N[C@@H](CCC(=O)O)C(=O)O)cc1)cn2Cc1ccccc1?
A: IC50 [3]: > 19 µM; IC50 [4]: 16 µM; IC50 [5]: > 19 µM; IC50 [6]: > 10 µM; IC50 [7]: > 19 µM; IC50 [8]: > 19000 nM; IC50 [1]: > 16000 nM; IC50 [9]: > 20 µM; Ratio [10]: 0.02; IC50 [11]: 19000 nM; IC50 [12]: > 16 µM; IC50 [13]: > 10 µM; Vmax [14]: 0.65; IC50 [2]: 0.31 µM; IC50 [15]: > 20 µM

Q: With Nc1nc(N)c2c(CNCc3ccc(C(=O)N[C@@H](CCC(=O)O)C(=O)O)cc3)coc2n1 as the molecule, how does the EC50 [16] read?
A: 30500 nM

Q: What does the source list for Cc1nc(N)nc2[nH]cc(CCc3ccc(C(=O)N[C@@H](CCC(=O)O)C(=O)O)cc3)c12?
A: IC50 [3]: 1.2 µM; IC50 [4]: 2 µM; IC50 [5]: 0.8 µM; EC50 [6]: 12.5 nM; GI50 [17]: < 10 nM; IC50 [7]: 1.2 µM; GI50 [18]: < 10 nM; GI50 [19]: 61.4 nM; GI50 [20]: 169 nM; IC50 [1]: 2000 nM; EC50 [9]: 7 nM; EC50 [21]: 575 nM; GI50 [22]: < 10 nM; IC50 [11]: 24 nM; GI50 [23]: 7.11 µM; IC50 [12]: 1 µM; EC50 [13]: 12.5 nM; EC50 [24]: 158 nM; Vmax [14]: 0.17; GI50 [25]: < 10 nM; IC50 [2]: 9 µM; EC50 [15]: 18.5 nM; GI50 [26]: < 10 nM

Q: How did the IC50 [27] turn out when Nc1nc(N)c2c(CNc3ccc(C(=O)N[C@@H](CCC(=O)O)C(=O)O)cc3)coc2n1 was run?
A: > 200 µM

Q: What about the IC50 [28] of the same molecule?
A: Not Active

Q: What about the IC50 [29] of the same molecule?
A: Not Active

Q: Which Ratio [10] does the source give for Nc1nc(N)c2nc(CNc3ccc(C(=O)N[C@@H](CCC(=O)O)C(=O)O)cc3)cnc2n1 [AMINOPTERIN] here?
A: 0.21

Q: What about the Vmax [14] of the same molecule?
A: 1

Q: Which EC50 [16] does the source give for Nc1nc(N)c2c(CCc3ccc(C(=O)N[C@@H](CCC(=O)O)C(=O)O)cc3)coc2n1 here?
A: 250 nM

Q: With Cc1cn([C@@H]2O[C@H](COP(=O)(O)O)[C@@H](O)[C@H]2O)c(=O)[nH]c1=O as the molecule, how does the IC50 [3] read?
A: 15 µM

Q: What about the IC50 [5] of the same molecule?
A: 340 µM

Q: What about the IC50 [7] of the same molecule?
A: 3.4 µM

Q: And the IC50 [8]?
A: 20 nM

Q: And the IC50 [11]?
A: 350 nM

Q: For Nc1nc2[nH]cc(CCc3ccc(C(=O)N[C@@H](CCC(=O)O)C(=O)O)cc3)c2c(=O)[nH]1 [PEMETREXED], which IC50 [1] is on record?
A: 20000 nM

Q: And the IC50 [12]?
A: 110 µM

Q: What about the IC50 [2] of the same molecule?
A: 20 µM

Q: Which IC50 [30] does the source give for CN(Cc1coc2nc(N)nc(N)c12)c1ccc(C(=O)N[C@@H](CCC(=O)O)C(=O)O)cc1 [FURO[2,3D]PYRIMIDINE ANTIFOLATE] here?
A: > 200 µM

Q: What about the IC50 [31] of the same molecule?
A: Not Active

Q: What about the IC50 [29] of the same molecule?
A: Not Active

Q: What about the EC50 [32] of the same molecule?
A: 55 nM

Q: What about the EC50 [16] of the same molecule?
A: 47 nM

B1: Folylpolyglutamate synthase, mitochondrial (Homo sapiens), Q05932 (protein)
chain: MSRARSHLRAALFLAAASARGITTQVAARRGLSAWPVPQEPSMEYQDAVRMLNTLQTNAGYLEQVKRQRGDPQTQLEAMELYLARSGLQVEDLDRLNIIHVTGTKGKGSTCAFTECILRSYGLKTGFFSSPHLVQVRERIRINGQPISPELFTKYFWRLYHRLEETKDGSCVSMPPYFRFLTLMAFHVFLQEKVDLAVVEVGIGGAYDCTNIIRKPVVCGVSSLGIDHTSLLGDTVEKIAWQKGGIFKQGVPAFTVLQPEGPLAVLRDRAQQISCPLYLCPMLEALEEGGPPLTLGLEGEHQRSNAALALQLAHCWLQRQDRHGAGEPKASRPGLLWQLPLAPVFQPTSHMRLGLRNTEWPGRTQVLRRGPLTWYLDGAHTASSAQACVRWFRQALQGRERPSGGPEVRVLLFNATGDRDPAALLKLLQPCQFDYAVFCPNLTEVSSTGNADQQNFTVTLDQVLLRCLEHQQHWNHLDEEQASPDLWSAPSPEPGGSASLLLAPHPPHTCSASSLVFSCISHALQWISQGRDPIFQPPSPPKGLLTHPVAHSGASILREAAAIHVLVTGSLHLVGGVLKLLEPALSQ
Q: With B1 as the molecule, how does the Km [33] read?
A: 37 µM

Q: What about the Km [34] of the same molecule?
A: < 1 µM
